Active and inactive are the calls of the source.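 How the source made its calls: active means AC50, the dose giving half-maximal effect, exceeds a fixed cutoff for a compound that rescues yeast growth under heat; inactive means the rest, inconclusive results apart.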
tested on: S. cerevisiae Burl-1 ts mutant growth, BacTiter-Glo, 38.5C 24 h; experiment: restored growth of temperature-sensitive Burl-1 yeast – whole organism, S. cerevisiae, Burl-1 ts mutant, luminescence, counter-screen for SUMOylation pathway inhibitor project, dose response (AID 463199)

SMILES | AC50
CCCCn1c2c(c(=O)n(C)c1=O)C(c1ccc(OC)cc1)N1CCCCCC1=N2 (stereo not given) | > 42 µM (inactive)
CCc1ccc2[nH]c(=O)c(C(c3nnnn3Cc3ccccc3)N3CCOCC3)cc2c1 (stereo not given) | > 42 µM (inactive)
COc1ccc(-c2c(C)nn3c(C)cc(C)nc23)cc1 | > 42 µM (inactive)
COc1ccc(N2C(=O)CSC2c2ccc([N+](=O)[O-])cc2)cc1 (stereo not given) | > 42 µM (inactive)
C[C@H]1O[C@H]1P(=O)(O)O | > 42 µM (inactive)
O=C(NCCCN1CCN(c2ccccc2F)CC1)Nc1ccccc1[N+](=O)[O-] | 25.4 µM
O=c1cc(C(F)(F)F)c2sc(N3CCCCC3)nc2[nH]1 | > 42 µM (inactive)
O=C(Nc1ccc([N+](=O)[O-])cn1)C1CC1 | > 42 µM (inactive)
CCNC(=O)NC1c2ccccc2CSc2ccccc21 (stereo not given) | > 42 µM (inactive)
Cc1c(C(=O)NC(C)C)oc2c1-c1[nH]ncc1CC2 | > 42 µM (inactive)
CC(C)Cc1nc(N2CCOCC2)c(C#N)c2c1CCC2 | > 42 µM (inactive)
CCOc1ccc(NC(=O)Nc2ccc3nsnc3c2)cc1 | > 42 µM (inactive)
COCCCNS(=O)(=O)c1ccc(Oc2ncc(C(F)(F)F)cc2Cl)cc1 | > 42 µM (inactive)
COc1ccccc1NC(=S)N(Cc1ccco1)Cc1cc2cccc(C)c2[nH]c1=O | > 42 µM (inactive)
Cc1cc(C#Cc2c(-c3ccccc3)n(C)c3ccccc23)ccc1F | > 42 µM (inactive)
CCCCN(C)C(=O)CCC(=O)Nc1ccc2nc(N3CCN(C)CC3)cc(C)c2c1 | > 42 µM (inactive)
CCCOc1ccc(N2C(=O)CC(N3CCC(C(=O)OCC)CC3)C2=O)cc1 (stereo not given) | > 42 µM (inactive)
C=CCn1c(=N)c(C(=O)NCCCOC)cc2c(=O)n3ccccc3nc21 | > 42 µM (inactive)
CN(CC(=O)N1CCc2[nH]c3ccc(F)cc3c2C1)CC1OCCO1 | > 42 µM (inactive)
O=C(COc1ncnc2ccccc12)Nc1ccc(Cl)c(S(=O)(=O)N2CCOCC2)c1 | > 42 µM (inactive)
Cc1cc(C)c2c(Cn3ccnc3)cc(=O)oc2c1 | > 42 µM (inactive)
Cc1cc(NC(=O)c2ccc(N3C(=O)CCC3=O)cc2)no1 | > 42 µM (inactive)
O=S(=O)(Cc1ccccc1)N1CCN(c2ccccc2)CC1 | > 42 µM (inactive)
O=C(COc1ccccc1)NCCS(=O)(=O)N1CCN(c2ccccc2)CC1 | > 42 µM (inactive)
CCOC(=O)c1sc(NC(=O)C(CC)OC(=O)c2ccco2)nc1C (stereo not given) | > 42 µM (inactive)

SMILES | AC50
Cc1ccc(CC2CC(=O)N(c3ccc4c(c3)OCCO4)C2=O)cc1 (stereo not given) | > 42 µM (inactive)
COc1ccccc1CNc1ncnc2nc[nH]c12 | > 42 µM (inactive)
Nc1ccc(S(=O)(=O)NNC(=O)C(=O)NNc2ccccc2)cc1 | > 42 µM (inactive)
Cc1nn(Cc2ccc(C(=O)Nc3ccccc3C(F)(F)F)o2)c(C)c1Br | > 42 µM (inactive)
CCOC(=O)NNC(=O)CCn1c2c(c3ccccc31)CCCC2 | > 42 µM (inactive)
CN(C)c1ccnc2sc3c(NCC(O)CO)ncnc3c12 (stereo not given) | > 42 µM (inactive)
O=C(c1ccccc1)C(CN1CCCC1)c1ccccc1 (stereo not given) | > 42 µM (inactive)
O=C(O)COc1ccc(Br)cc1/C=N\Nc1ccccn1 | > 42 µM (inactive)
CC(Oc1ccccc1[N+](=O)[O-])C(=O)N/N=C/c1ccoc1 (stereo not given) | > 42 µM (inactive)
C/C(=N\N1CCN(Cc2ccccc2Cl)CC1)c1ccc([N+](=O)[O-])cc1 | > 42 µM (inactive)
CNC(=O)COC(=O)c1cc(-c2ccco2)nc2ccccc12 | > 42 µM (inactive)
COc1ccc(S(=O)(=O)n2nc(-c3ccc(Cl)cc3)cc2N)cc1OC | > 42 µM (inactive)
Cc1ccc(-c2noc(C3CCCN(S(=O)(=O)c4ccc5ccccc5c4)C3)n2)o1 (stereo not given) | > 42 µM (inactive)
CN(C(=O)CSc1nnc(-c2cccc(F)c2)n1N)C1CCS(=O)(=O)C1 (stereo not given) | > 42 µM (inactive)
COC(=O)c1ccccc1SC(CC(=O)c1ccccc1)c1ccc(F)cc1 (stereo not given) | > 42 µM (inactive)
CCn1nc(C(=O)OCc2cccc(S(=O)(=O)N(C)C)c2)c2ccccc2c1=O | > 42 µM (inactive)
Cc1c(NC(=O)CN2C(=O)NC(C)(c3ccc(OC(F)F)cc3)C2=O)c(=O)n(-c2ccccc2)n1C (stereo not given) | > 42 µM (inactive)
COc1cc(CN2CCN(c3ncccn3)CC2)cc(OC)c1 | > 42 µM (inactive)
O=[N+]([O-])c1c(NCCCO)cc(Sc2nc3ccccc3s2)c2nonc12 | > 42 µM (inactive)
COc1ccccc1N1C(=O)c2ccccc2NC1C(OC)OC (stereo not given) | > 42 µM (inactive)
CN(C)CCOC(=O)CCc1ccccc1 | > 42 µM (inactive)
C=CSc1sc(Cl)c(N(C)C)c1[N+](=O)[O-] | > 42 µM (inactive)
CNC(=O)Nc1cc(NC(=O)NC)cc(C(F)(F)F)c1 | > 42 µM (inactive)
CC1CCN(C(=O)c2[nH]cnc2C(=O)NCC(=O)OCc2ccccc2)CC1 | > 42 µM (inactive)
COc1ccc2c(c1)OC[C@H]1[C@H]2N2C(=O)c3cc(OC)c(OC)cc3NC(=O)[C@@]2(C)[C@H]1c1ccccc1 | > 42 µM (inactive)

SMILES | AC50
CN(CC(=O)Nc1sccc1C#N)Cc1ccccc1 | > 42 µM (inactive)
CCCCN(C(=O)C1=COCCO1)c1c(N)n(Cc2ccccc2)c(=O)[nH]c1=O | > 42 µM (inactive)
CN1CC2(C)OC(=O)C(Cl)=C2CC1c1ccccc1 (stereo not given) | > 42 µM (inactive)
CCC(C)[C@H]1COCCS(=O)(=O)N1Cc1ccc(C)cc1 (stereo not given in full) | > 42 µM (inactive)
Cc1ccc(O)c(CNc2nc3ccccc3n2C)c1 | > 42 µM (inactive)
COc1cccc(C(=O)NCc2ccc(-c3nc4ccccc4s3)cc2)c1 | > 42 µM (inactive)
CN1C(C(=O)Nc2ccccn2)=C(O)c2sccc2S1(=O)=O | > 42 µM (inactive)
CC1c2cc3c(cc2CCN1CC(=O)Nc1ccccc1)OCCCO3 (stereo not given) | > 42 µM (inactive)
CCCCn1c(=O)[nH]c(=O)c2c1nc(COc1ccc(C#N)cc1)n2CCC | > 42 µM (inactive)
Cc1ccc(C(=O)/C=C/c2ccc(-c3ccccc3[N+](=O)[O-])o2)cc1 | > 42 µM (inactive)
COc1cc(SC)ccc1C(=O)Nc1cc(C)c(OCC(=O)N2CCOCC2)c(C)c1 | > 42 µM (inactive)
CCOC(=O)c1cnc2c(OC)cccc2c1N1CCN(c2ccccc2OC)CC1 | > 42 µM (inactive)
CNS(=O)(=O)c1cccc(C(=O)NCC2(N3CCCCC3)CCCCC2)c1 | > 42 µM (inactive)
Cn1c(CSc2nc3ccccc3s2)nnc1SCC(=O)NCCN1CCOCC1 | > 42 µM (inactive)
CC(C)[N+]1(C)[C@@H]2CC[C@@H]1CC(OC(=O)C(CO)c1ccccc1)C2 (stereo not given in full) | > 42 µM (inactive)
O=C(Nc1nccs1)c1ccc(S(=O)(=O)c2ccccc2)cc1 | > 42 µM (inactive)
O=C(OCc1nc2ccsc2c(=O)[nH]1)c1ccco1 | > 42 µM (inactive)
CSc1nsc(SCC(=O)Nc2cccc(C(=O)O)c2)n1 | > 42 µM (inactive)
Cc1cc(Nc2nc3c(c(=O)n(C)c(=O)n3C)n2C)n(-c2ccc(Cl)cc2)n1 | > 42 µM (inactive)
CCCCNC(=O)C1C2C=CC3(CN(Cc4ccc(C)cc4)C(=O)C13)O2 (stereo not given) | > 42 µM (inactive)
Cc1[nH]nc2c1C(c1cccs1)C1=C(CC(C)(C)CC1=O)N2 (stereo not given) | > 42 µM (inactive)
O=C(NC1CCCCC1)N(Cc1cc2cc3c(cc2[nH]c1=O)OCCO3)C1CCCCC1 | > 42 µM (inactive)
CCCCC(=O)NCCc1ccc(S(N)(=O)=O)cc1 | > 42 µM (inactive)
O=C(O)c1cccc(NC(=O)c2cccc(S(=O)(=O)Nc3cccc([N+](=O)[O-])c3)c2)c1 | > 42 µM (inactive)
CC1(C)NC(=O)N(CC(=O)O)C1=O | > 42 µM (inactive)

SMILES | AC50
O=C(COc1ccccc1)Nc1cccc(-c2nnc(-c3ccccc3)o2)c1 | > 42 µM (inactive)
O=C1CCN(Cc2ccccc2)CCN1CCOc1ccccc1 | > 42 µM (inactive)
COc1cc2ccccc2cc1C(=O)Nc1ccc(CN2CCOCC2)cc1 | > 42 µM (inactive)
COc1cc(/C=N/n2cnnc2)ccc1OCc1ccccc1 | > 42 µM (inactive)
CC1=Nc2ccccc2/C1=C\c1nc(-c2ccccc2)oc1O | > 42 µM (inactive)
CCOC(=O)CN1NC2(CCC(C(C)(C)C)CC2)NC1=S (stereo not given) | > 42 µM (inactive)
O=C(c1cc(-c2ccc(Cl)cc2)n(-c2ccc(Cl)cc2)n1)N1CCOCC1 | > 42 µM (inactive)
CC(C(=O)Nc1ccccc1-c1ccccc1)N1CCN(Cc2ccccc2)CC1 (stereo not given) | > 42 µM (inactive)
CCOC1(OCC)C(c2ccc(Cl)cc2)C(C#N)(C#N)C1(OCC)OCC (stereo not given) | > 42 µM (inactive)
CCOc1cc(NC(=O)c2cccs2)c(OCC)cc1NC(=O)CCC(=O)NCCN1CCOCC1 | > 42 µM (inactive)
Cc1ccc(-c2csc3ncn(CC(=O)N4CCOCC4)c(=O)c23)cc1 | > 42 µM (inactive)
Cc1cc(Cl)c2oc(C(=O)NC3CCC(O)CC3)c(C)c2c1 (stereo not given) | > 42 µM (inactive)
O=C(N/N=C/c1ccccn1)NC12CC3CC(CC(C3)C1)C2 | > 42 µM (inactive)
CCOC(=O)c1ccc(NC(=O)NCc2ccncc2)cc1 | > 42 µM (inactive)
CCc1cc2c(=O)c(-c3ccc(F)cc3)c(C(F)(F)F)oc2cc1OCC(=O)O | > 42 µM (inactive)
CN1CCCCC1=NCCCn1cnc2c1c(=O)n(C)c(=O)n2C | > 42 µM (inactive)
CC1=Nc2ccc(C)cc2N(Cc2ccccc2)C(=O)C1 | > 42 µM (inactive)
COc1cc(/C=N/NC(=O)c2cccnc2)ccc1OCC(=O)N1CCOCC1 | > 42 µM (inactive)
NC(=O)CC(NC(=S)NCc1ccccc1)C(=O)O (stereo not given) | > 42 µM (inactive)
Cn1c(=O)c2c(nc(N/N=C/c3ccc(OC(=O)c4ccco4)cc3)n2Cc2ccccc2Cl)n(C)c1=O | > 42 µM (inactive)
CCOc1ncccc1C(=O)OCC(=O)N(CC)c1ccccc1 | > 42 µM (inactive)
COc1ccc(Cl)cc1NC(=O)C1CCCN(c2cc(C)nc3ncnn23)C1 (stereo not given) | > 42 µM (inactive)
CCCCn1c(SCC(=O)Nc2cc(C)on2)nnc1-c1ccco1 | > 42 µM (inactive)
Oc1c(Cl)cc(Cl)cc1/C=N/c1nc(-c2ccc(Cl)cc2)cs1 | > 42 µM (inactive)
COc1cc(C(=O)Oc2cccnc2)cc(OC)c1OC | > 42 µM (inactive)
